In brackets after ≈: the same amount, converted by molar mass. Where a SMILES comes first, the peptide text is derived from it. Bridges are numbered along the chain shown (N, C = ends). Roman numbers before positions name the chains, in order. [ ]: non-standard residue; d: D form. dDab = NCC[C@@H](N)C(=O)O; Nle = CCCC[C@H](N)C(=O)O; Dab = NCC[C@H](N)C(=O)O; Dap = NC[C@H](N)C(=O)O
How the values were obtained:
Assay type in all cases: cell-based
[1] = system: Acinetobacter baumannii 872842; details: 872842
In short: (§1)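 CLSI broth microdilution in cation-adjusted Mueller-Hinton II broth with 0.002% polysorbate 80 (final), inoculum appr. 10^6 CFU/mL, peptides in serial two-fold dilutions. MIC (μg/mL) is the lowest concentration without visible growth after 18-20 h at 35° C.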

[2] = system: Acinetobacter baumannii DSM 30008; details: DSM 30008
In short: as §1

[3] = system: Enterobacter cloacae 848840; details: 848840
In short: as §1

[4] = system: Escherichia coli 926415; details: 926415
In short: as §1

[5] = system: Escherichia coli ATCC 25922; details: ATCC 25922
In short: as §1

[6] = system: Klebsiella pneumoniae 968733; details: 968733
In short: as §1

[7] = system: Klebsiella pneumoniae SSI #3010; details: SSI #3010
In short: as §1

[8] = system: Pseudomonas aeruginosa ATCC 27853; details: ATCC 27853
In short: as §1

[9] = system: human red blood cells (hRBC); test: Hemolysis; details: red cells of human, 1 h, 200
In short: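 Read-out is supernatant absorbance at 540 nm, normalised to full lysis by 2% Triton X-100 and zero lysis by PBS with 10% water. Peptides (200 μg/mL) were exposed to 20% v/v washed human erythrocytes at 37° C for 1 h under shaking.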

Row | Structure (SMILES) | MIC [1] | Acinetobacter baumannii DSM 30008 MIC [2] | MIC [3] | MIC [4] | Escherichia coli ATCC 25922 MIC [5] | MIC [6] | Klebsiella pneumoniae SSI #3010 MIC [7] | Pseudomonas aeruginosa ATCC 27853 MIC [8] | Hemolysis at 200 μg/mL [9]
1 | CC[C@H](C)[C@@H]1NC(=O)[C@H](CO)NC(=O)[C@H](Cc2c[nH]c3ccccc23)NC(=O)[C@H](CO)NC(=O)[C@@H](CCN)NC(=O)[C@H](CCC(=O)N[C@@H](CCN)C(=O)N[C@H](C(=O)N[C@@H](CN)C(=O)N[C@H]2CCNC(=O)[C@H]([C@@H](C)O)NC(=O)[C@H](CCN)NC(=O)[C@H](CCN)NC(=O)[C@H](CC(C)C)NC(=O)[C@@H](CC(C)C)NC(=O)[C@H](CCN)NC2=O)[C@@H](C)O)NC(=O)[C@H](CN)NC(=O)[C@H](Cc2ccc(O)cc2)NC(=O)[C@@H](NC(=O)[C@@H](NC(C)=O)C(C)C)CCNC(=O)CC[C@@H](C(=O)N[C@@H](CO)C(N)=O)NC1=O [Ex. 322] (I: Ac-V[Dab]Y[Dap]E[dDab]SWSIES-NH2 / II: [Dab]T[Dap][Dab][Dab][dL]L[Dab][Dab]T; lactam I:2-I:11, II:4-II:C; amide I:5-II:N) | 0.0625 µg/mL (≈ 0.026 µM) | 0.0625 µg/mL | 0.0625 µg/mL (≈ 0.026 µM) | 0.125 µg/mL (≈ 0.052 µM) | 0.0625 µg/mL | 0.25 µg/mL (≈ 0.104 µM) | 0.125 µg/mL | 0.125 µg/mL | <1%
2 | CC[C@H](C)[C@@H]1NC(=O)[C@H](CO)NC(=O)[C@H](Cc2c[nH]c3ccccc23)NC(=O)[C@H](CO)NC(=O)[C@@H](CCN)NC(=O)[C@H](CCC(=O)N[C@@H](CCN)C(=O)N[C@H](C(=O)N[C@@H](CN)C(=O)N[C@H]2CCNC(=O)[C@H]([C@@H](C)O)NC(=O)[C@H](CCN)NC(=O)[C@H](CCN)NC(=O)[C@H](CC(C)C)NC(=O)[C@@H](CC(C)C)NC(=O)[C@H](CCN)NC2=O)[C@@H](C)O)NC(=O)[C@H](CCN)NC(=O)[C@H](Cc2ccc(O)cc2)NC(=O)[C@@H](NC(=O)[C@@H](NC(C)=O)C(C)C)CCNC(=O)C[C@@H](C(=O)N[C@@H](CO)C(N)=O)NC1=O [Ex. 323] (I: Ac-V[Dab]Y[Dab]E[dDab]SWSIDS-NH2 / II: [Dab]T[Dap][Dab][Dab][dL]L[Dab][Dab]T; lactam I:2-I:11, II:4-II:C; amide I:5-II:N) | 0.0625 µg/mL (≈ 0.026 µM) | 0.0625 µg/mL | 0.125 µg/mL (≈ 0.052 µM) | 0.25 µg/mL (≈ 0.104 µM) | 0.0625 µg/mL | 0.5 µg/mL (≈ 0.208 µM) | 0.125 µg/mL | 0.125 µg/mL | <1%
3 | CC[C@H](C)[C@@H]1NC(=O)[C@H](CO)NC(=O)[C@H](Cc2c[nH]c3ccccc23)NC(=O)[C@H](CO)NC(=O)[C@@H](CCN)NC(=O)[C@H](CCC(=O)N[C@@H](CCN)C(=O)N[C@H](C(=O)N[C@@H](CN)C(=O)N[C@H]2CCNC(=O)[C@H]([C@@H](C)O)NC(=O)[C@H](CCN)NC(=O)[C@H](CCN)NC(=O)[C@H](CC(C)C)NC(=O)[C@@H](CC(C)C)NC(=O)[C@H](CCN)NC2=O)[C@@H](C)O)NC(=O)[C@H](CCN)NC(=O)[C@H](Cc2ccc(O)cc2)NC(=O)[C@@H](NC(=O)[C@@H](NC(C)=O)C(C)C)CCNC(=O)CC[C@@H](C(=O)N[C@@H](CO)C(N)=O)NC1=O [Ex. 324] (I: Ac-V[Dab]Y[Dab]E[dDab]SWSIES-NH2 / II: [Dab]T[Dap][Dab][Dab][dL]L[Dab][Dab]T; lactam I:2-I:11, II:4-II:C; amide I:5-II:N) | 0.125 µg/mL (≈ 0.0517 µM) | 0.0625 µg/mL | 0.125 µg/mL (≈ 0.0517 µM) | 0.125 µg/mL (≈ 0.0517 µM) | 0.0625 µg/mL | 0.5 µg/mL (≈ 0.207 µM) | 0.0625 µg/mL | 0.0625 µg/mL | <1%
4 | CCCC[C@@H]1NC(=O)[C@H](CO)NC(=O)[C@H](Cc2c[nH]c3ccccc23)NC(=O)[C@H](CO)NC(=O)[C@@H](CCN)NC(=O)[C@H](CCC(=O)N[C@@H](CCN)C(=O)N[C@H](C(=O)N[C@@H](CN)C(=O)N[C@H]2CCNC(=O)[C@H]([C@@H](C)O)NC(=O)[C@H](CCN)NC(=O)[C@H](CCN)NC(=O)[C@H](CC(C)C)NC(=O)[C@@H](CC(C)C)NC(=O)[C@H](CCN)NC2=O)[C@@H](C)O)NC(=O)[C@H](CCN)NC(=O)[C@H](Cc2ccc(O)cc2)NC(=O)[C@@H](NC(=O)[C@@H](NC(C)=O)C(C)C)CCNC(=O)C[C@@H](C(=O)N[C@@H](CO)C(N)=O)NC1=O [Ex. 325] (I: Ac-V[Dab]Y[Dab]E[dDab]SWS[Nle]DS-NH2 / II: [Dab]T[Dap][Dab][Dab][dL]L[Dab][Dab]T; lactam I:2-I:11, II:4-II:C; amide I:5-II:N) | 0.125 µg/mL (≈ 0.052 µM) | 0.0625 µg/mL | 0.0625 µg/mL (≈ 0.026 µM) | 0.125 µg/mL (≈ 0.052 µM) | 0.0625 µg/mL | 0.5 µg/mL (≈ 0.208 µM) | 0.0625 µg/mL | 0.125 µg/mL | <1%
5 | CCCC[C@@H]1NC(=O)[C@H](CO)NC(=O)[C@H](Cc2c[nH]c3ccccc23)NC(=O)[C@H](CO)NC(=O)[C@@H](CCN)NC(=O)[C@H](CCC(=O)N[C@@H](CCN)C(=O)N[C@H](C(=O)N[C@@H](CN)C(=O)N[C@H]2CCNC(=O)[C@H]([C@@H](C)O)NC(=O)[C@H](CCN)NC(=O)[C@H](CCN)NC(=O)[C@H](CC(C)C)NC(=O)[C@@H](CC(C)C)NC(=O)[C@H](CCN)NC2=O)[C@@H](C)O)NC(=O)[C@H](CCN)NC(=O)[C@H](Cc2ccc(O)cc2)NC(=O)[C@@H](NC(=O)[C@@H](NC(C)=O)C(C)C)CCNC(=O)CC[C@@H](C(=O)N[C@@H](CO)C(N)=O)NC1=O [Ex. 326] (I: Ac-V[Dab]Y[Dab]E[dDab]SWS[Nle]ES-NH2 / II: [Dab]T[Dap][Dab][Dab][dL]L[Dab][Dab]T; lactam I:2-I:11, II:4-II:C; amide I:5-II:N) | 0.125 µg/mL (≈ 0.0517 µM) | 0.0625 µg/mL | 0.0625 µg/mL (≈ 0.0258 µM) | 0.125 µg/mL (≈ 0.0517 µM) | 0.0625 µg/mL | 0.5 µg/mL (≈ 0.207 µM) | 0.0625 µg/mL | 0.0625 µg/mL | <1%

— US11629171B2, “Beta-hairpin peptidomimetics” (POLYPHOR AG, priority 2017, dated 2023)
